pIC50: −log10 of the molar value.
Legend:
[1] = target: T1, Human ASK1 (Homo sapiens, UniProt Q99683); test: ASK1 Cell Based Assay (phospho p38 read out in hASK1 transfected HEK293T-AP1 cells); details: HEK293T-AP1 cells, 1 mM hydrogen peroxide, phospho p38; read-out: Cell Based Assay IC50
T1 construct: expressed in transfected cells; host or cells: HEK293T-AP1
T1 sequence (Q99683 1-1374): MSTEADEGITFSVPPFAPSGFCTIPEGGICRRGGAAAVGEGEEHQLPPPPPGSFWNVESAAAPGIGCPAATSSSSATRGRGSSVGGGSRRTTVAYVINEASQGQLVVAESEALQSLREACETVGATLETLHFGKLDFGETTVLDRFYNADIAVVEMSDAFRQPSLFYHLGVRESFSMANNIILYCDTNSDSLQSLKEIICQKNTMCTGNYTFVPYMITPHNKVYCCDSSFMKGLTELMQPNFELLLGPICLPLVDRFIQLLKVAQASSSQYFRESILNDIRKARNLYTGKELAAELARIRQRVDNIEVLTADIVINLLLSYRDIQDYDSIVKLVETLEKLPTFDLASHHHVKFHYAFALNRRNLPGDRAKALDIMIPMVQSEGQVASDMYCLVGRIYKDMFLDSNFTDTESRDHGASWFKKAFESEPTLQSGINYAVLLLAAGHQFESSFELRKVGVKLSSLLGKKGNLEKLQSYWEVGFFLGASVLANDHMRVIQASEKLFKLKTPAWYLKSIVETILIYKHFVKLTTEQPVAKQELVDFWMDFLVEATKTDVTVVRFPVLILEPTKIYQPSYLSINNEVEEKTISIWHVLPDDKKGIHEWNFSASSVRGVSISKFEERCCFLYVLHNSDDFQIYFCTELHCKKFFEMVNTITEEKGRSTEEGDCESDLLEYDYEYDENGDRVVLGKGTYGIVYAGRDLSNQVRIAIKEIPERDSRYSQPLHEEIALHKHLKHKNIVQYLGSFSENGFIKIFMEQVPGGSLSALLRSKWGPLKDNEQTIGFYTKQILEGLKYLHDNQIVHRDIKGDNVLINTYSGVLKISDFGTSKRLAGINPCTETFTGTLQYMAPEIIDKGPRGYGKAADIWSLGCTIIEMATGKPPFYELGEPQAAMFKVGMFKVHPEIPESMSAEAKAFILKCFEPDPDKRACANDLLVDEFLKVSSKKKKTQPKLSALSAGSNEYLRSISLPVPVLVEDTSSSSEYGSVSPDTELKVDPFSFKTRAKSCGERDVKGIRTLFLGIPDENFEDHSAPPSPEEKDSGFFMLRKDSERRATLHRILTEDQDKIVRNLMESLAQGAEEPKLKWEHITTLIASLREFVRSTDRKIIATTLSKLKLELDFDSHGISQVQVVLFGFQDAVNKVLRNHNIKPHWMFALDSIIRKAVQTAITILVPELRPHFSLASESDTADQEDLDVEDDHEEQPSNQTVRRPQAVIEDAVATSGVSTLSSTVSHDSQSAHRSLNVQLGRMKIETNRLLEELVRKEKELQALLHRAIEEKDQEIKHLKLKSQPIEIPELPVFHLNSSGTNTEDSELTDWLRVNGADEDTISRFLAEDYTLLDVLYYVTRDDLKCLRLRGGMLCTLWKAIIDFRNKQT
Procedure, shortened: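 HEK293T-AP1 cells transfected with hASK1, after 24 h treated with compounds for 24 h (0.2% DMSO), then stimulated with 1 mM H2O2 for 1 h with compounds present.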

[2] = target: T2, recombinant ASK1 (Homo sapiens, UniProt Q99683); test: ASK1 Biochemical Assay (HTRF KinEASE-STK S3); details: ATP 100 μM; read-out: Biochemical Assay IC50
T2 construct: purchased Carna Biosciences
Procedure, shortened: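 Recombinant ASK1 (5 ng) preincubated with compound 1 h at 23 °C in MOPS pH 7 buffer with Mg-acetate, DTT, NP40, glycerol, BSA and 1% DMSO. Inhibition calculated against vehicle after substrate-blank subtraction.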

Question: Which results are given for `CC(C)n1cnnc1-c1cccc(N2CCN(c3ccc(S(C)(=O)=O)s3)C2=O)n1` [Example 1123, 1-(6-(4-isopropyl-4H-1,2,4-triazol-3-yl)pyridin-2-yl)-3-(5-(methylsulfonyl)thiophen-2-yl)imidazolidin-2-one]?
Answer: pIC50 [1]: < 6.00; pIC50 [2]: < 7.00

Question: Which results are given for `CC(C)n1cnnc1-c1cccc(N2CCN(c3ccc4c(c3)C(C)(C)CS4(=O)=O)C2=O)n1` [Example 1124, 1-(3,3-dimethyl-1,1-dioxido-2,3-dihydrobenzo[b]thiophen-5-yl)-3-(6-(4-isopropyl-4H-1,2,4-triazol-3-yl)pyridin-2-yl)imidazolidin-2-one]?
Answer: pIC50 [1]: < 6.00; pIC50 [2]: > 7.00

Question: How did the pIC50 [1] turn out when `CC(C)n1cnnc1-c1cccc(N2CCN(c3ccc4c(ccn4C)c3)C2=O)n1` [Example 1125, 1-(6-(4-isopropyl-4H-1,2,4-triazol-3-yl)pyridin-2-yl)-3-(1-methyl-1H-indol-5-yl)imidazolidin-2-one] was run?
Answer: < 6.00

Question: And the pIC50 [2]?
Answer: > 7.00

Question: With `CC(C)n1cnnc1-c1cccc(N2CCN(c3ccc(OCCS(C)(=O)=O)cc3)C2=O)n1` [Example 1126, 1-(4-(2-(methylsulfonyl)ethoxy)phenyl)-3-(6-(4-isopropyl-4H-1,2,4-triazol-3-yl)pyridin-2-yl)imidazolidin-2-one] as the compound, how does the pIC50 [1] read?
Answer: < 6.00

Question: And the pIC50 [2]?
Answer: > 7.00

Question: `CNC(=O)C1CCN(Cc2ccc(N3CCN(c4cccc(-c5nncn5C(C)C)n4)C3=O)cc2)CC1` [Example 1128, 1-(4-(3-(6-(4-isopropyl-4H-1,2,4-triazol-3-yl)pyridin-2-yl)-2-oxoimidazolidin-1-yl)benzyl)-N-methylpiperidine-4-carboxamide] was tested. Which pIC50 [1] did it give?
Answer: < 6.00

Question: What about the pIC50 [2] of the same compound?
Answer: > 7.00

Question: How did the pIC50 [1] turn out when `CC(C)C(c1ccc(N2CCN(c3cccc(-c4nncn4C(C)C)n3)C2=O)cc1)N1CCOCC1` (centres unmarked) [Example 1129, 1-(6-(4-isopropyl-4H-1,2,4-triazol-3-yl)pyridin-2-yl)-3-(4-(2-methyl-1-morpholinopropyl)phenyl)imidazolidin-2-one] was run?
Answer: < 6.00

Question: What about the pIC50 [2] of the same compound?
Answer: > 7.00

Question: `CNC(=O)[C@@H]1CCN(c2ccc(N3CCN(c4cccc(-c5nncn5C(C)C)n4)C3=O)cc2)C1` [Example 1130, (R)-1-(4-(3-(6-(4-isopropyl-4H-1,2,4-triazol-3-yl)pyridin-2-yl)-2-oxoimidazolidin-1-yl)phenyl)-N-methylpyrrolidine-3-carboxamide] was tested. Which pIC50 [1] did it give?
Answer: > 7.00

Question: What about the pIC50 [2] of the same compound?
Answer: > 7.30

Question: `CNC(=O)[C@H]1CCN(c2ccc(N3CCN(c4cccc(-c5nncn5C(C)C)n4)C3=O)cc2)C1` [Example 1131, (S)-1-(4-(3-(6-(4-isopropyl-4H-1,2,4-triazol-3-yl)pyridin-2-yl)-2-oxoimidazolidin-1-yl)phenyl)-N-methylpyrrolidine-3-carboxamide] was tested. Which pIC50 [1] did it give?
Answer: 5.81

Question: And the pIC50 [2]?
Answer: > 7.00

Question: `CC(C)n1cnnc1-c1cccc(N2CCN(c3ccc(NC4CCOC4)cc3)C2=O)n1` (centres unmarked) [Example 1133, 1-(6-(4-isopropyl-4H-1,2,4-triazol-3-yl)pyridin-2-yl)-3-(4-(tetrahydrofuran-3-ylamino)phenyl)imidazolidin-2-one] was tested. Which pIC50 [1] did it give?
Answer: < 6.00

Question: And the pIC50 [2]?
Answer: > 7.00

Question: `CC(C)C(C#N)C1CN(c2ccc(N3CCN(c4cccc(-c5nncn5C(C)C)n4)C3=O)cc2)C1` (centres unmarked) [Example 1134, 2-(1-(4-(3-(6-(4-isopropyl-4H-1,2,4-triazol-3-yl)pyridin-2-yl)-2-oxoimidazolidin-1-yl)phenyl)azetidin-3-yl)-3-methylbutanenitrile] was tested. Which pIC50 [1] did it give?
Answer: < 6.00

Question: What about the pIC50 [2] of the same compound?
Answer: > 7.00

Question: How did the pIC50 [1] turn out when `CC(C)n1cnnc1-c1cccc(N2CCN(c3ccc(N4CCN(C)C(=O)C4)cc3)C2=O)n1` [Example 1135, 4-(4-(3-(6-(4-isopropyl-4H-1,2,4-triazol-3-yl)pyridin-2-yl)-2-oxoimidazolidin-1-yl)phenyl)-1-methylpiperazin-2-one] was run?
Answer: < 6.00

Question: And the pIC50 [2]?
Answer: > 7.00

Question: `CNC(=O)N1CCN(c2ccc(N3CCN(c4cccc(-c5nncn5C(C)C)n4)C3=O)cc2)CC1` [Example 1136, 4-(4-(3-(6-(4-isopropyl-4H-1,2,4-triazol-3-yl)pyridin-2-yl)-2-oxoimidazolidin-1-yl)phenyl)-N-methylpiperazine-1-carboxamide] was tested. Which pIC50 [1] did it give?
Answer: < 7.00

Question: And the pIC50 [2]?
Answer: > 7.00

Question: `CC(C)n1cnnc1-c1cccc(N2CCN(c3ccc(N4CCN(C(=O)CC#N)CC4)cc3)C2=O)n1` [Example 1137, 3-(4-(4-(3-(6-(4-isopropyl-4H-1,2,4-triazol-3-yl)pyridin-2-yl)-2-oxoimidazolidin-1-yl)phenyl)piperazin-1-yl)-3-oxopropanenitrile] was tested. Which pIC50 [1] did it give?
Answer: < 7.00

Question: And the pIC50 [2]?
Answer: > 7.00

Question: What does the source list for `CC(C)n1cnnc1-c1cccc(N2CCN(c3ccc(N4CCC(F)CC4)cc3)C2=O)n1` [Example 1138, 1-(4-(4-fluoropiperidin-1-yl)phenyl)-3-(6-(4-isopropyl-4H-1,2,4-triazol-3-yl)pyridin-2-yl)imidazolidin-2-one]?
Answer: pIC50 [1]: < 7.00; pIC50 [2]: > 7.00

Question: `CNC1(C2CCN(c3ccc(N4CCN(c5cccc(-c6nncn6C(C)C)n5)C4=O)cc3)CC2)COC1` [Example 1139, 1-(6-(4-isopropyl-4H-1,2,4-triazol-3-yl)pyridin-2-yl)-3-(4-(4-(3-(methylamino)oxetan-3-yl)piperidin-1-yl)phenyl)imidazolidin-2-one] was tested. Which pIC50 [1] did it give?
Answer: < 7.00

Question: And the pIC50 [2]?
Answer: > 7.00

Question: With `CNC(=O)C1CC2CCC(C1)N2c1ccc(N2CCN(c3cccc(-c4nncn4C(C)C)n3)C2=O)cc1` (centres unmarked) [Example 1140, 8-(4-(3-(6-(4-isopropyl-4H-1,2,4-triazol-3-yl)pyridin-2-yl)-2-oxoimidazolidin-1-yl)phenyl)-N-methyl-8-aza-bicyclo[3.2.1]octane-3-carboxamide] as the compound, how does the pIC50 [1] read?
Answer: > 7.00

Question: And the pIC50 [2]?
Answer: > 7.30

— patent US20220332700A1, “NOVEL APOPTOSIS SIGNAL-REGULATING KINASE 1 INHIBITORS” (MANKIND PHARMA LTD, priority 2019, published 2022)
